Measurements: the NIST ThermoML archive (doi:10.1016/j.jct.2016.01.019)
Where “and” joins values, the source holds several entries; their conditions need not be identical. Identical values can stand only once. Numbers after ± are expanded uncertainties.

Key:
[1] = Liquid; for mass density: 94.64 kPa, Vibrating tube method; for vapor or sublimation pressure: Ebulliometric method (Recirculating still)
[2] = refractive index (Na D-line) (dimensionless); conditions: 94.64 kPa, Liquid, Standard Abbe refractometry

OCCCO [propan-1,3-diol]
Conditions	mass density [kg/m3]	refractive index	vapor or sublimation pressure
[1], 293.15 K	1052.75 ± 3.2	–	–
[1], 298.15 K	1049.67 ± 3.2	–	–
[1], 303.15 K	1046.55 ± 3.2	–	–
[1], 308.15 K	1043.45 ± 3.2	–	–
[1], 313.15 K	1040.32 ± 3.2	–	–
[1], 318.15 K	1037.18 ± 3.2	–	–
[1], 414.2 K	–	–	6.65 ± 2 kPa and 6.67 ± 2 kPa
[1], 420.8 K	–	–	9.93 ± 2.1 kPa
[1], 427.55 K	–	–	13.33 ± 2.2 kPa
[1], 427.6 K	–	–	13.47 ± 2.2 kPa
[1], 433.9 K	–	–	16.75 ± 2.6 kPa
[1], 438.05 K	–	–	19.99 ± 3.6 kPa
[1], 441.95 K	–	–	23.46 ± 3.8 kPa
[1], 445.3 K	–	–	26.66 ± 4.1 kPa
[1], 448.65 K	–	–	30.22 ± 3.8 kPa
[1], 451.65 K	–	–	33.22 ± 4.6 kPa
[1], 453.15 K	–	–	33.33 ± 4.7 kPa
[1], 454.65 K	–	–	36.69 ± 5 kPa
[1], 457.45 K	–	–	39.99 ± 6.3 kPa
[1], 457.49 K	–	–	40.04 ± 6.3 kPa
[1], 459.85 K	–	–	43.37 ± 6 kPa
[1], 461.95 K	–	–	46.67 ± 6.3 kPa and 46.66 ± 6.3 kPa
[1], 463.95 K	–	–	49.97 ± 6.8 kPa
[1], 465.45 K	–	–	53.24 ± 7.4 kPa
[2], 293.15 K	–	1.43932 ± 0.002	–
[2], 298.15 K	–	1.43796 ± 0.002	–
[2], 303.15 K	–	1.43665 ± 0.002	–
[2], 308.15 K	–	1.43523 ± 0.002	–
[2], 313.15 K	–	1.43385 ± 0.002	–
[2], 318.15 K	–	1.43255 ± 0.002	–

CC(O)CO (configuration not stated) [1,2-propanediol]
Conditions	mass density [kg/m3]	refractive index	vapor or sublimation pressure
[1], 293.15 K	1036.25 ± 3.2	–	–
[1], 298.15 K	1032.61 ± 3.2	–	–
[1], 303.15 K	1028.93 ± 3.2	–	–
[1], 308.15 K	1025.19 ± 3.2	–	–
[1], 313.15 K	1021.42 ± 3.2	–	–
[1], 318.15 K	1017.65 ± 3.2	–	–
[1], 389.39 K	–	–	6.67 ± 1.8 kPa
[1], 396.95 K	–	–	10 ± 2 kPa
[1], 402.95 K	–	–	13.33 ± 2.4 kPa
[1], 408.6 K	–	–	16.61 ± 2.7 kPa
[1], 412.95 K	–	–	19.96 ± 3.3 kPa
[1], 413.23 K	–	–	19.99 ± 3.3 kPa
[1], 417.15 K	–	–	23.34 ± 3.4 kPa
[1], 421.2 K	–	–	26.62 ± 4.2 kPa
[1], 421.21 K	–	–	26.66 ± 4.2 kPa
[1], 424.5 K	–	–	30 ± 4.4 kPa
[1], 427.16 K	–	–	33.33 ± 5.1 kPa
[1], 427.23 K	–	–	33.57 ± 5.1 kPa
[1], 429.55 K	–	–	36.61 ± 6 kPa
[1], 432.05 K	–	–	40.01 ± 6.5 kPa and 39.99 ± 6.5 kPa
[1], 433.7 K	–	–	43.33 ± 6.8 kPa
[1], 436.07 K	–	–	46.66 ± 7.2 kPa
[1], 437.77 K	–	–	50 ± 7.4 kPa
[1], 439.74 K	–	–	53.25 ± 7 kPa
[1], 441.27 K	–	–	56.74 ± 8.2 kPa
[1], 443.15 K	–	–	59.99 ± 7.9 kPa
[2], 293.15 K	–	1.43219 ± 0.002	–
[2], 298.15 K	–	1.4303 ± 0.002	–
[2], 303.15 K	–	1.42921 ± 0.002	–
[2], 308.15 K	–	1.42746 ± 0.002	–
[2], 313.15 K	–	1.42566 ± 0.002	–
[2], 318.15 K	–	1.42386 ± 0.002	–
